Test results: US4670469A, “Hydroxamic acid and pharmaceutical preparations containing the same” (VEB Arzneimittelwerk Dresden, priority 1983, dated 1987)

Assays:
thrombocyte aggregation = experiment: Arachidonic acid-induced thrombocyte aggregation in thrombocyte-rich plasma; format: cell-based, humans; settings: Homo sapiens; 0.8 mM arachidonic acid; concentration giving total restraint of aggregation
Text: Since with the new medicines the restraints of lipoxygenase has been identified as a molecular type of attack, also their influence on the thrombocyte-aggregation has been tested. The essential role of the lipoxygenase pathway for irreversibility of the thrombocyte aggregation is now known. (C. E. Dutilh et al. Prostaglandins and Medicine 6, 111 (1981)). The key role is attributed to the irreversibility of the thrombocyte aggregation in the pathogenesis of thrombotic illnesses. […] In the experiments, the thrombocyte aggregation was triggered either by means of arachidonic acid or by means of platelet activation factor (PAF-Acether).
The testing of the compounds for antithrombotic and thrombolytic activity follows in authentic cell systems of humans in vitro. Thrombocyte-rich plasma from the blood of healthy donors is obtained by centrifugation at 1,000×g. The measurement of the thrombocyte aggregation follows by means of an aggregometer based upon diffuse light scattering or light absorption of the produced cell aggregate. The thrombocyte-rich plasma is pre-incubated at 37° C. for 3 minutes with the active substance or substances; thereafter the thrombocyte aggregation is triggered through the addition of either 0.8 mM arachidonic acid or 1 μM platelet activation factor (PAF-acether). The preparations are then stirred with a velocity of 800 rpm. Indeed according to the employed active substance concentration there occurs either a strong delay or a complete inhibition of the thrombocyte aggregation.

[1] = tested on: aorta endothelial cells of calves; experiment: Formation of lipoxygenase products of arachidonic acid in cultivated aorta endothelial cells; format: cell-based; settings: 0.1 mM
Procedure: (§1) The inhibition of thrombocyte aggregation is likewise ascribed to the inhibition of lipoxygenase in the cells. It has thus been shown that the arachidonate-lipoxygenase activity of a microsome-free lysate of human thrombocyte concentrates is inhibited to the extent of 100% by means of 0.25 mM salicylhydroxamic acid. Moreover, it has been shown that also a series of further lipoxygenases are inhibited by means of the here described hydroxamic acids. The lipoxygenase from soybeans reacts the most insensitive, i.e. it is inhibited by means of 1 mM salicylhydroxamic acid at pH 7.4 to an extent of 60% and by means of 0.4 mM 2-hydroxy-1-napthylhydroxamic acid to an extent of 54%. In contrast, for the lipoxygenase from peas which come closer in their characteristics to human lipoxygenase, the following I50 -values are provided: salicyl hydroxamic acid, 5 μM, 2-hydroxy-1-napthylhydroxamic acid, 2 μM, 2(2'-napthoxy)-acethydroxamic acid, 2 μM. Moreover it has been shown that the formation lipoxygenase products of arachidonic acid in in vitro cultivated aorta endothelial cells of calves is hindered through 0.1 mM 2-hydroxy-1-napthylhydroxamic acids.

[2] = molecular target: T1, lipoxygenase from soybeans (Glycine max, UniProt P08170); experiment: Inhibition of lipoxygenase from soybeans; format: biochemical; settings: 0.4 mM; read-out: inhibition of soybean lipoxygenase
T1 construct: host or cells: soybeans
T1 sequence (P08170 1-839): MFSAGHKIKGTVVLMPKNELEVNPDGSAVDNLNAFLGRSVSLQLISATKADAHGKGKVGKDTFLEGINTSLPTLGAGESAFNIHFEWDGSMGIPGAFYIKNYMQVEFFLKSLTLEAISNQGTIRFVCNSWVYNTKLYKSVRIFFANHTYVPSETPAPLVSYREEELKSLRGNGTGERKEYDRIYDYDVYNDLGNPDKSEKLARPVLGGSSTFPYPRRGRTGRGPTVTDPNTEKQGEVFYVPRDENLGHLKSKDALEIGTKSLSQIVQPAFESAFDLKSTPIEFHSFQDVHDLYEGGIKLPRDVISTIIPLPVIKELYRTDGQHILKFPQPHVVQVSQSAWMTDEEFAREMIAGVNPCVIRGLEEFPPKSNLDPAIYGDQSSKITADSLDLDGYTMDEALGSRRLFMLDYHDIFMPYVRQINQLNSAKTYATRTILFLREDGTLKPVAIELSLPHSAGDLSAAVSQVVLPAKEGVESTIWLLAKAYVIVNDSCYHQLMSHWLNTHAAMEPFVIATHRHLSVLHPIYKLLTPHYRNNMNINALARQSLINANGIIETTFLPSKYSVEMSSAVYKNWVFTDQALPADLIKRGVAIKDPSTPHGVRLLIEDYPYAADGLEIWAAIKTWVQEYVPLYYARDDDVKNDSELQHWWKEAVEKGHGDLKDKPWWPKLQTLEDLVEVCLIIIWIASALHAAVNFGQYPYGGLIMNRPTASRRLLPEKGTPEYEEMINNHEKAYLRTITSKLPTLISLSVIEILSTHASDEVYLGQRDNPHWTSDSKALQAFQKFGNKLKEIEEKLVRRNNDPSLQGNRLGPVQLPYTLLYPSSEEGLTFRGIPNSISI
Procedure: as §1

lipoxygenase from peas = experiment: Inhibition of lipoxygenase from peas; format: biochemical; settings: read-out: I50
Procedure: as §1

[3] = molecular target: T2, lipoxygenase from rabbit reticulocytes (Oryctolagus cuniculus, UniProt P12530); experiment: Inhibition of the activity of lipoxygenase from rabbit reticulocytes (oxygen consumption, Clark electrode); format: biochemical; settings: 25° C., pH 7.4, 0.53 mM linoleic acid, 15 min pre-incubation
T2 construct: The lipoxygenase from rabbit reticulocytes is obtained in electrophoretically and immunologically pure form; from tissue; host or cells: rabbit reticulocytes
T2 sequence (P12530 1-663): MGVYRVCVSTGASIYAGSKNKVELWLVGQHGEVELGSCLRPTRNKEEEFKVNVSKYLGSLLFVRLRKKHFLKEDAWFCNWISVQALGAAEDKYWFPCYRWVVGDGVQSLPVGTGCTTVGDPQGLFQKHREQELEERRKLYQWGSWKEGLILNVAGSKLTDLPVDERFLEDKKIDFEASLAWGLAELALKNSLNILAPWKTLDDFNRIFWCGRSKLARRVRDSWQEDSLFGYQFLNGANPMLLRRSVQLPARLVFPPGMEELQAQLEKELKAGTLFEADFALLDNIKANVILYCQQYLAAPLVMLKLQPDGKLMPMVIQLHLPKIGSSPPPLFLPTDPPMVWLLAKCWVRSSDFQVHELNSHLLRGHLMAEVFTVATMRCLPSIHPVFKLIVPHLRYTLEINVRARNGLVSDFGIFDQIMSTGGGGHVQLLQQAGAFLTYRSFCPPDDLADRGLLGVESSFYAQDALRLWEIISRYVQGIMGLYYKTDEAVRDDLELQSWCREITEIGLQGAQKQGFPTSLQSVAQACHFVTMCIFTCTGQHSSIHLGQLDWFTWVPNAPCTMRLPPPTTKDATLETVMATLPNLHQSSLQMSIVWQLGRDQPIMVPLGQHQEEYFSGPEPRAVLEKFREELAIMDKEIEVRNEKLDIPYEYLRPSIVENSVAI
Procedure: The lipoxygenase from rabbit reticulocytes was obtained in electrophoretically and immunologically pure form according to a technique known from the literature (S. M. Rapoport et al. Methods in Enzymology 71, 430 (1981)). The determination of lipoxygenase activity follows at 25° C. through the polarographic measurement of the oxygen consumption by means of Clark Electrode in a standardized system.
Through variation of the substance concentrations, the titration curves of the inhibition and therefrom the inhibition concentrations (I-value) of the compounds can be determined.
The testing of compounds for antiasthmatic, antiallergenic, inflammation-inhibiting and antithrombotic activity on the basis on the inhibition of the lipoxygenase reaction of the arachidonic acid cascade follows in a molecular/pharmacological test system. […] The lipoxygenase from rabbit reticulocytes is obtained in electrophoretically and immunologically pure form according to the techniques described in the literature (supra). The determination of the lipoxygenase activity follows at 25° C. through the polorographic measurement of oxygen consumption by means of a Clark-electrode in the following system: 0.1M potassiumphosphate, pH 7.4, with 0.2 percent sodium cholate and 0.53 mM linoleic acid. The enzyme concentration in the measurement preparation came to 25 nM. The compounds to be tested are dissolved in methylglycol (freshly distilled in a vacuum) and pre-incubated for 15 minutes at the measuring temperature in the absence of sodium cholate and linoleic acid. […] The enzyme reaction is started by the addition of sodium cholate and linoleic acid.

inhibition at 400 µM [2]: 54% | IC50 (lipoxygenase from peas): 2 µM | IC50 ([3]; read-out: I50): 1.6 µM | IC84 ([3]; read-out: I84): 5.2 µM
Compound: O=C(NO)c1c(O)ccc2ccccc12 [2-hydroxy-1-naphthylhydroxanic acid, 2-hydroxy-1-naphthylhydroxamic acid]
IC100 (thrombocyte aggregation): 7 µM | formation of lipoxygenase products of arachidonic acid [1]: hindered
